Reference: ChEMBL document CHEMBL3994603, “Antioxidant Flavonols and Phenolic Compounds from Atraphaxis frutescens and Their Inhibitory Activities against Insect Phenoloxidase and Mushroom Tyrosinase” (J Nat Prod, 2016)

Target: Mushroom tyrosinase (Agaricus bisporus, UniProt O42713+Q00024+C7FF04+C7FF05)
Description: Inhibition of mushroom tyrosinase using L-DOPA as substrate preincubated for 5 mins followed by substrate addition measured for 10 mins by spectrophotometric method

Row | IC50 | SMILES
1 | 4.3 mM | O=C(/C=C/c1ccc(O)cc1)NCCc1ccc(O)c(O)c1
2 | > 5 mM | COc1cc(O)c2c(=O)c(O)c(-c3cc(O)c(O)c(O)c3)oc2c1OC(C)=O
3 | > 5 mM | COc1cc(O)c2c(=O)c(O[C@@H]3O[C@@H](C)[C@H](O)[C@@H](O)[C@H]3O)c(-c3ccc(O)c(O)c3)oc2c1OC(C)=O
4 | > 5 mM | COc1cc(CO[C@@H]2O[C@H](CO)[C@@H](O)[C@H](O)[C@H]2O)cc(OC)c1OC
5 | > 5 mM | COc1cc(CO[C@@H]2O[C@H](CO[C@@H]3O[C@@H](C)[C@H](O)[C@@H](O)[C@H]3O)[C@@H](O)[C@H](O)[C@H]2O)cc(OC)c1OC
6 | 1.2 mM | COc1cc(O)c2c(=O)c(O[C@@H]3O[C@@H](C)[C@H](O)[C@@H](O)[C@H]3O)c(-c3cc(O)c(O)c(O)c3)oc2c1O
7 | > 5 mM | COc1cc(O)c2c(=O)c(O)c(-c3cc(O)c(O)c(O)c3)oc2c1O
8 | 2.2 mM | COc1cc(O)c2c(=O)c(O[C@@H]3O[C@@H](C)[C@H](O)[C@@H](O)[C@H]3O)c(-c3ccc(O)c(O)c3)oc2c1O
9 | 0.9 mM | COc1cc(O)c2c(=O)c(O[C@@H]3O[C@@H](C)[C@H](O)[C@@H](O)[C@H]3O)c(-c3cc(O)c(O)c(O)c3)oc2c1O[C@@H]1O[C@H](CO)[C@@H](O)[C@H](O)[C@H]1O
10 | 4 mM | COc1cc(O)c2c(=O)c(O[C@@H]3O[C@@H](C)[C@H](O)[C@@H](O)[C@H]3O)c(-c3ccc(O)c(O)c3)oc2c1O[C@@H]1O[C@H](CO)[C@@H](O)[C@H](O)[C@H]1O
11 | 4.7 mM | COc1cc(O)c2c(=O)c(O[C@@H]3O[C@@H](C)[C@H](O)[C@@H](O)[C@H]3O)c(-c3cc(O)c(O)c(O)c3)oc2c1OC(C)=O
12 | > 5 mM | COc1cc(O)c2c(=O)c(O)c(-c3ccc(O)c(O)c3)oc2c1O
13 | 1.1 mM | COc1cc(O)c2c(=O)c(O[C@@H]3O[C@@H](C)[C@H](O)[C@@H](O)[C@H]3O)c(-c3cc(O)c(O)c(O)c3)oc2c1
14 | > 5 mM | COc1cc(O)c2c(=O)c(O)c(-c3ccc(O)c(O)c3)oc2c1OC(C)=O
15 | 2 mM | C[C@@H]1O[C@@H](Oc2c(-c3cc(O)c(O)c(O)c3)oc3cc(O)cc(O)c3c2=O)[C@H](O)[C@H](O)[C@H]1O
16 | > 5 mM | Oc1cc(O)c2c(c1)O[C@H](c1ccc(O)c(O)c1)[C@H](O)C2 [(-)-EPICATECHIN]
17 | > 5 mM | O=C(/C=C/c1ccc(O)cc1)NCCc1ccc(O)cc1 [N-P-COUMAROYL TYRAMINE]
18 | > 5 mM | COc1cc(/C=C/C(=O)NCCc2ccc(O)cc2)ccc1O [N-TRANS-FERULOYL TYRAMINE]
19 | > 5 mM | COc1cc(/C=C/C(=O)NCCc2ccc(O)c(O)c2)ccc1O [N-TRANS-FERULOYLDOPAMINE]
20 | 0.7 mM | Cc1c(C)c2c(c(C)c1O)CCC(C)(C(=O)O)O2 (configuration not stated) [TROLOX]

Row | SMILES | IC50
21 | Oc1cc(O)c2c(c1)O[C@H](c1cc(O)c(O)c(O)c1)[C@H](O)C2 [EPIGALLOCATECHIN] | 0.7 mM
22 | Oc1cc(O)c2c(c1)O[C@H](c1cc(O)c(O)c(O)c1)[C@@H](O)C2 [GALLOCATECHIN] | 0.16 mM
